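Protocol summary: plate cells (96-well), add compound at 5 concentrations, incubate 48 h, interpolate endpoints linearly. Abbreviation: GI50, concentration required for 50% inhibition of growth.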 Calls of active or inactive are those of the source. Cut-off read from the data, not from the text of the source: active = GI50 up to about 1.1 µM and inactive = higher. Peptide text beside a SMILES is read from it. * marks the point of attachment. OSu = O=C1CCC(=O)N1O*
What was measured:
Assay in all cases: NCI-60 cell line screen, 48 h
[1] = system: ACHN
[2] = system: BT-549
[3] = system: CCRF-CEM
[4] = system: COLO 205
[5] = system: HCT-116
[6] = system: IGROV-1
[7] = system: LOX IMVI
[8] = system: MCF7
[9] = system: MDA-MB-435
[10] = system: MOLT-4
[11] = system: NCI/ADR-RES
[12] = system: OVCAR-8
[13] = system: PC-3
[14] = system: RXF 393
[15] = system: SK-MEL-2
[16] = system: SNB-19
[17] = system: TK-10
[18] = system: UACC-62
[19] = system: MDA-N
[20] = system: SK-MEL-28

| Compound | GI50 [1] | GI50 [2] | GI50 [3] | GI50 [4] | GI50 [5] | GI50 [6] | GI50 [7] | GI50 [8] | GI50 [9] | GI50 [10] | GI50 [11] | GI50 [12] | GI50 [13] | GI50 [14] | GI50 [15] | GI50 [16] | GI50 [17] | GI50 [18] | GI50 [19] | GI50 [20] |
| --- | --- | --- | --- | --- | --- | --- | --- | --- | --- | --- | --- | --- | --- | --- | --- | --- | --- | --- | --- | --- |
| CCN(CC)CCCC(C)Nc1ccnc2cc3ccccc3cc12 (stereo unspecified) | 3.72 µM (inactive) | 8.59 µM (inactive) | > 100 µM (inactive) | 3.3 µM (inactive) | 5.75 µM (inactive) | 4.43 µM (inactive) | 4.91 µM (inactive) | 5.35 µM (inactive) | 7.85 µM (inactive) | 4.09 µM (inactive) | 10.1 µM (inactive) | 7.23 µM (inactive) | 12.9 µM (inactive) | 9.53 µM (inactive) | 23.9 µM (inactive) | 7.53 µM (inactive) | 10.2 µM (inactive) | 17.2 µM (inactive) | – | – |
| COc1ccc(S(=O)(=O)N2C(=O)CCC2C(=O)NN)cc1 (stereo unspecified) | > 100 µM (inactive) | > 100 µM (inactive) | > 100 µM (inactive) | > 100 µM (inactive) | > 100 µM (inactive) | > 100 µM (inactive) | > 100 µM (inactive) | > 100 µM (inactive) | > 100 µM (inactive) | > 100 µM (inactive) | > 100 µM (inactive) | > 100 µM (inactive) | > 100 µM (inactive) | – | > 100 µM (inactive) | > 100 µM (inactive) | > 100 µM (inactive) | > 100 µM (inactive) | > 100 µM (inactive) | > 100 µM (inactive) |
| O=C(Nc1nc(C23CC4CC(CC(C4)C2)C3)cs1)c1cc2c(ccc3ccccc32)oc1=O | > 100 µM (inactive) | > 100 µM (inactive) | > 100 µM (inactive) | > 100 µM (inactive) | > 100 µM (inactive) | > 100 µM (inactive) | > 100 µM (inactive) | > 100 µM (inactive) | > 100 µM (inactive) | > 100 µM (inactive) | > 100 µM (inactive) | > 100 µM (inactive) | > 100 µM (inactive) | – | – | > 100 µM (inactive) | > 100 µM (inactive) | – | > 100 µM (inactive) | > 100 µM (inactive) |
| CN(C)C(=O)C(NCCO)c1ccccc1 (stereo unspecified) | > 100 µM (inactive) | > 100 µM (inactive) | – | > 100 µM (inactive) | 53.7 µM (inactive) | 72.6 µM (inactive) | > 100 µM (inactive) | > 100 µM (inactive) | 79.4 µM (inactive) | 22.4 µM (inactive) | – | > 100 µM (inactive) | 89.1 µM (inactive) | > 100 µM (inactive) | > 100 µM (inactive) | > 100 µM (inactive) | > 100 µM (inactive) | 61.2 µM (inactive) | > 100 µM (inactive) | > 100 µM (inactive) |
| CCOC(=O)c1csc(C(CSCc2ccc(OC)cc2)N2C(=O)c3ccccc3C2=O)n1 (stereo unspecified) | > 100 µM (inactive) | > 100 µM (inactive) | 35.9 µM (inactive) | > 100 µM (inactive) | 49.1 µM (inactive) | > 100 µM (inactive) | 37.6 µM (inactive) | 73.5 µM (inactive) | 54.8 µM (inactive) | 31.5 µM (inactive) | > 100 µM (inactive) | > 100 µM (inactive) | > 100 µM (inactive) | > 100 µM (inactive) | – | > 100 µM (inactive) | > 100 µM (inactive) | 63.5 µM (inactive) | – | > 100 µM (inactive) |
| CCN(C(C)=O)c1cnc(/C=N/NC(N)=S)c2ccccc12 | 1.76 µM (inactive) | 5 µM (inactive) | 2.54 µM (inactive) | 4.83 µM (inactive) | 2.67 µM (inactive) | 2.76 µM (inactive) | 1.38 µM (inactive) | 2.81 µM (inactive) | 4.42 µM (inactive) | 1.96 µM (inactive) | 10.6 µM (inactive) | 2.29 µM (inactive) | 4.15 µM (inactive) | 17.9 µM (inactive) | – | 3.49 µM (inactive) | 4.59 µM (inactive) | 3.3 µM (inactive) | 7.01 µM (inactive) | – |
| COc1ccc2c(c1)[n+]([O-])c1cc(C#N)ccc1[n+]2[O-] | 1.69 µM (inactive) | 10.2 µM (inactive) | – | 0.586 µM (active) | 11.1 µM (inactive) | 4.88 µM (inactive) | 3.3 µM (inactive) | 4.84 µM (inactive) | 2.25 µM (inactive) | 0.316 µM (active) | 15.5 µM (inactive) | 15.4 µM (inactive) | 2.43 µM (inactive) | 47.2 µM (inactive) | 4.27 µM (inactive) | 7.87 µM (inactive) | 3.21 µM (inactive) | 2.94 µM (inactive) | – | 12.9 µM (inactive) |
| N#CC(NCCc1ccccc1)c1ccc(C(C#N)NCCc2ccccc2)cc1 (stereo unspecified) | > 100 µM (inactive) | 20.5 µM (inactive) | 17.9 µM (inactive) | 48 µM (inactive) | 28.8 µM (inactive) | > 100 µM (inactive) | 45.1 µM (inactive) | 55.5 µM (inactive) | 33.8 µM (inactive) | 32.6 µM (inactive) | 24.3 µM (inactive) | 73.6 µM (inactive) | > 100 µM (inactive) | > 100 µM (inactive) | > 100 µM (inactive) | 61.2 µM (inactive) | > 100 µM (inactive) | > 100 µM (inactive) | – | 48.5 µM (inactive) |
| CC(OC(C)(C)C)[C@H](NC(=O)OCc1ccccc1)C(=O)NC(OCc1ccccc1)[C@H]1COC(C)(C)O1 (stereo partly specified) | > 10 µM (inactive) | > 10 µM (inactive) | > 10 µM (inactive) | > 10 µM (inactive) | 50.7 µM (inactive) | > 10 µM (inactive) | > 10 µM (inactive) | – | > 10 µM (inactive) | > 10 µM (inactive) | > 10 µM (inactive) | > 10 µM (inactive) | > 10 µM (inactive) | 21.8 µM (inactive) | > 10 µM (inactive) | > 10 µM (inactive) | > 10 µM (inactive) | > 10 µM (inactive) | > 10 µM (inactive) | > 100 µM (inactive) |
| COc1ccc2c(c1)CCN1CCc3ccccc3CC21 (stereo unspecified) | 45 µM (inactive) | 34 µM (inactive) | 33.3 µM (inactive) | 19.4 µM (inactive) | 20.4 µM (inactive) | 56.5 µM (inactive) | 24 µM (inactive) | 60.8 µM (inactive) | 26.8 µM (inactive) | 35 µM (inactive) | 42.9 µM (inactive) | 63.5 µM (inactive) | 30 µM (inactive) | – | 57.3 µM (inactive) | 32.9 µM (inactive) | 35.7 µM (inactive) | 32.3 µM (inactive) | 27.4 µM (inactive) | 27.6 µM (inactive) |
| N#Cc1ccc(OCc2ccc3nc(-c4ccccc4)c(Cl)nc3c2)cc1 | 43.6 µM (inactive) | > 100 µM (inactive) | > 100 µM (inactive) | > 100 µM (inactive) | > 100 µM (inactive) | > 100 µM (inactive) | > 100 µM (inactive) | > 100 µM (inactive) | > 100 µM (inactive) | > 100 µM (inactive) | > 100 µM (inactive) | > 100 µM (inactive) | > 100 µM (inactive) | – | > 100 µM (inactive) | > 100 µM (inactive) | 58.1 µM (inactive) | > 100 µM (inactive) | > 100 µM (inactive) | > 100 µM (inactive) |
| CC(C)(C)OC(=O)N(CCNS(=O)(=O)c1cccc2cnccc12)CCC(=O)ON1C(=O)CCC1=O | > 100 µM (inactive) | > 100 µM (inactive) | – | > 100 µM (inactive) | > 100 µM (inactive) | > 100 µM (inactive) | > 100 µM (inactive) | > 100 µM (inactive) | > 100 µM (inactive) | > 100 µM (inactive) | > 100 µM (inactive) | > 100 µM (inactive) | > 100 µM (inactive) | > 100 µM (inactive) | > 100 µM (inactive) | > 100 µM (inactive) | > 100 µM (inactive) | > 100 µM (inactive) | – | > 100 µM (inactive) |
| N#Cc1c(N)nc(-c2ccc(Cl)cc2)c2c1-c1ccccc1S(=O)(=O)CC2 | > 100 µM (inactive) | 27.5 µM (inactive) | – | > 100 µM (inactive) | > 100 µM (inactive) | > 100 µM (inactive) | > 100 µM (inactive) | – | > 100 µM (inactive) | – | 52.5 µM (inactive) | 34 µM (inactive) | > 100 µM (inactive) | – | > 100 µM (inactive) | 29.1 µM (inactive) | > 100 µM (inactive) | > 100 µM (inactive) | > 100 µM (inactive) | > 100 µM (inactive) |
| CC1=NNC(=O)C1C1C(=O)NN=C(c2c[nH]c3ccccc23)C1Br (stereo unspecified) | 42.3 µM (inactive) | > 100 µM (inactive) | 25.7 µM (inactive) | 33.8 µM (inactive) | 35.7 µM (inactive) | 1.09 µM (active) | 62.1 µM (inactive) | – | 48.6 µM (inactive) | 25.4 µM (inactive) | 47.5 µM (inactive) | 48.9 µM (inactive) | 25.5 µM (inactive) | > 100 µM (inactive) | 21.1 µM (inactive) | 37.8 µM (inactive) | > 100 µM (inactive) | 83.4 µM (inactive) | 59.8 µM (inactive) | 69 µM (inactive) |
| NCCCCC(NC(=O)C(N)Cc1ccc(O)cc1)C(=O)NC(CCCCN)C(=O)NC(CCCCN)C(=O)ON1C(=O)CCC1=O (stereo unspecified) (H-YKKK-OSu; configuration not given here) | > 100 µM (inactive) | > 100 µM (inactive) | – | > 100 µM (inactive) | > 100 µM (inactive) | > 100 µM (inactive) | – | > 100 µM (inactive) | – | > 100 µM (inactive) | – | > 100 µM (inactive) | > 100 µM (inactive) | > 100 µM (inactive) | > 100 µM (inactive) | > 100 µM (inactive) | > 100 µM (inactive) | > 100 µM (inactive) | > 100 µM (inactive) | > 100 µM (inactive) |

Reference: ChEMBL document CHEMBL1201862, “PubChem BioAssay data set” (2004)
